In test [1] the target is DNA topoisomerase 2-beta (Homo sapiens) (UniProt Q02880). As to the kind of experiment: In vitro inhibition of DNA topoisomerase II activity (DNA unknotting) at a concentration of 50 uM.
In test [2] the target is T1, DNA topoisomerase 1 (Homo sapiens) (UniProt P11387).
T1 sequence (whole entry): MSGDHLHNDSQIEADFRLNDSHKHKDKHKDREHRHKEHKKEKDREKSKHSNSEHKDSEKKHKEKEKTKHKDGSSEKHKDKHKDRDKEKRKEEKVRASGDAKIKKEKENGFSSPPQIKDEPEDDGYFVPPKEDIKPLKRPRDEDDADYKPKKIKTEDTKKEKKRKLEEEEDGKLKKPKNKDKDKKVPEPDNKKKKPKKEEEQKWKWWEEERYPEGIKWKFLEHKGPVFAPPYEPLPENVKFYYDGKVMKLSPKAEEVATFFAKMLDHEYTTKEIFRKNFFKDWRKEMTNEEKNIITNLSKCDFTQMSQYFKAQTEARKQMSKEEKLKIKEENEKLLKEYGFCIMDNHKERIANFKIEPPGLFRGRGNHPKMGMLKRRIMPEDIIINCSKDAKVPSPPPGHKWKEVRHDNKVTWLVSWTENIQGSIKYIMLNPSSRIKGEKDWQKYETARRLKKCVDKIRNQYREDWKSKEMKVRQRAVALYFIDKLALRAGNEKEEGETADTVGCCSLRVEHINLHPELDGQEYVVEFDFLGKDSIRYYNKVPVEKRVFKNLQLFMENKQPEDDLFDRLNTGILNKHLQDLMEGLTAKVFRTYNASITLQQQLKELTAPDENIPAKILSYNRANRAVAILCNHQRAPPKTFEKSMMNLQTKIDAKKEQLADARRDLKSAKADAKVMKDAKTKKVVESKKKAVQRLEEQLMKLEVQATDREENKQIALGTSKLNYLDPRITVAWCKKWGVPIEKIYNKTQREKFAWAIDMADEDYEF
As to the kind of experiment: In vitro inhibition of DNA topoisomerase I activity (ATP-independent DNA relaxation) at a concentration of 50 uM.

Test [3] relates to KB. As to the kind of experiment: In vitro cellular protein-DNA complex formation at a concentration of 50 uM; no activity. The format is functional, cell-based. The following applies: Homo sapiens.
Test [4] relates to KB. In words: In vitro topoisomerase II -DNA complex formation at a concentration of 50 uM; no activity. It is filed as functional, cell-based. The following applies: Homo sapiens.
The target of test [5] is T1, DNA topoisomerase 1 (Homo sapiens). As to the kind of experiment: In vitro inhibition of DNA topoisomerase I activity (ATP-independent DNA relaxation) at a concentration of 50 uM; no activity.
Test [6] has as its system KB. As to the kind of experiment: In vitro topoisomerase II -DNA complex formation at a concentration of 10 uM; no activity. The format is functional, cell-based. The note with it: Homo sapiens.
Test [7] deals with KB. As to the kind of experiment: In vitro topoisomerase II -DNA complex formation at a concentration of 100 uM; no activity. The format is functional, cell-based. The note with it: Homo sapiens.
The subject of test [8] is KB. As to the kind of experiment: In vitro topoisomerase II -DNA complex formation at a concentration of 1 uM; no activity. The format is functional, cell-based. The following applies: Homo sapiens.
Test [9] deals with KB. As to the kind of experiment: In vitro topoisomerase II -DNA complex formation at a concentration of 50 uM. It is filed as functional, Homo sapiens.
The subject of test [10] is KB. In words: In vitro cellular protein-DNA complex formation at a concentration of 50 uM. It is filed as functional, Homo sapiens.

Molecules are shown by their SMILES. Activity calls are given as the source filed them. The rule behind the calls is not given here.

Usually inhibition stands for the drop in the measured response relative to a control, in per cent.

DNA topoisomerase 2-beta (Homo sapiens), sequence (Q02880 whole entry): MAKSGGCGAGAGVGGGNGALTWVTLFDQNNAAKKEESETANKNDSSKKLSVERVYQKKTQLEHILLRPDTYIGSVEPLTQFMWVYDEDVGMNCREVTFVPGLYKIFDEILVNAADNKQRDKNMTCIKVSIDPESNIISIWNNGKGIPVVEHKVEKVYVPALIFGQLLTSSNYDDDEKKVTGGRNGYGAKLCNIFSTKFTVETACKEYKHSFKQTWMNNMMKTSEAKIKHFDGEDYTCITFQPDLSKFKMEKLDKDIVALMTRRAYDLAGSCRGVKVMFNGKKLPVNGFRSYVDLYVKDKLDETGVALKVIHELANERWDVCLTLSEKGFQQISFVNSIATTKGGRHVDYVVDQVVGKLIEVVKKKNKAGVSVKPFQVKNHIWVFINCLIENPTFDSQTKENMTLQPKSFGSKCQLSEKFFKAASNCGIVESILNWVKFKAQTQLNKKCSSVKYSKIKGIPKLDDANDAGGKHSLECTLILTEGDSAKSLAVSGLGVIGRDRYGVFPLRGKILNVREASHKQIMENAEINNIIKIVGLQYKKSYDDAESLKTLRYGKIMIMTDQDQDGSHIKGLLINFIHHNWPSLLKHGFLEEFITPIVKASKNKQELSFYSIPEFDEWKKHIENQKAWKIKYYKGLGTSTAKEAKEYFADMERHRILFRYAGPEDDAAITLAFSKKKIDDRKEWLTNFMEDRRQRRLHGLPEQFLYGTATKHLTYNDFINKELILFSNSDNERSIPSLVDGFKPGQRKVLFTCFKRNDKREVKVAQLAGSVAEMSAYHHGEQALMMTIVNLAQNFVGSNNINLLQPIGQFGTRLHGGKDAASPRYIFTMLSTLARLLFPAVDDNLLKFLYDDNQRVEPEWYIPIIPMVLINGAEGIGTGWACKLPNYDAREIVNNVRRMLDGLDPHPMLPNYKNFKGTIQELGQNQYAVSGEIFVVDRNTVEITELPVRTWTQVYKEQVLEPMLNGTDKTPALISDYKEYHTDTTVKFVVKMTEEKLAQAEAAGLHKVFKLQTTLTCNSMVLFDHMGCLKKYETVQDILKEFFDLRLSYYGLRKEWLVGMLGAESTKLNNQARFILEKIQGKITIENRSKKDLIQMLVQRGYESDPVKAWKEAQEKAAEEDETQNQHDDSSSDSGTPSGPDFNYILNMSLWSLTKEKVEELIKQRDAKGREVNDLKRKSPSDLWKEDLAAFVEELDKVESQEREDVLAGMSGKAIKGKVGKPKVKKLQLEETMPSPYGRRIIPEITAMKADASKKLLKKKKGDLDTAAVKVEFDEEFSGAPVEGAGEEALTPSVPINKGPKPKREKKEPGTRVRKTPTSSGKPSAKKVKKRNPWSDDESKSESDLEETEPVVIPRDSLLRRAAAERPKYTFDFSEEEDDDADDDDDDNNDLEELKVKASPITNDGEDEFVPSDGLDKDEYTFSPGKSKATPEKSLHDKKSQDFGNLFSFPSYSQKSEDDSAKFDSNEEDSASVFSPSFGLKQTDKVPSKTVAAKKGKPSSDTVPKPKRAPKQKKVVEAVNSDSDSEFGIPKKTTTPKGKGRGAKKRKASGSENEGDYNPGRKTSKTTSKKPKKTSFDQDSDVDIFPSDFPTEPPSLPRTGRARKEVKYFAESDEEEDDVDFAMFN

For the compound `O=C(O)C1=Cc2cc(O)c(O)cc2[C@@H](c2ccc(O)c(O)c2)[C@@H]1C(=O)O`, the inhibition in test [1] and in test [2] was 100% each time.

For `O=C(O[C@H](Cc1ccc(O)c(O)c1)C(=O)O)C1=Cc2cc(O)c(O)cc2[C@@H](c2ccc(O)c(O)c2)[C@@H]1C(=O)O[C@H](Cc1ccc(O)c(O)c1)C(=O)O`, the inhibition in [1] and in [2] was 100% each time. The Complex formation result with KB [3] and in the test on KB [4] was “No activity” in each case.

Consider `O=C(O[C@@H]1C[C@](O)(C(=O)O)C[C@@H](O)[C@H]1O)C1=Cc2cc(O)c(O)cc2[C@@H](c2ccc(O)c(O)c2)[C@@H]1C(=O)O[C@@H]1C[C@](O)(C(=O)O)C[C@@H](O)[C@H]1O`, for which, in test [5], the inhibition result was “inactive”. Also, the inhibition in test [1] came to 100%. In addition, the Complex formation entry in the test on KB [6], in the test with KB [7], in the test on KB [3], with KB [8] and in the test on KB [4] was “No activity” each time.

As to `COC(=O)C1=Cc2cc(O)c(O)cc2[C@@H](c2ccc(O)c(O)c2)[C@@H]1C(=O)OC`, the inhibition result in test [5] was “inactive”. Moreover, the inhibition in test [1] is 100%. Moreover, the Complex formation entry with KB [3] and in the test on KB [4] was “No activity” throughout.

`O=C(O[C@H](Cc1ccc(O)c(O)c1)C(=O)O)C1=Cc2cc(O)c(O)cc2[C@H](c2ccc(O)c(O)c2)[C@H]1C(=O)O[C@H](Cc1ccc(O)c(O)c1)C(=O)O`: the inhibition in test [1] and in test [2] was 100% in each case. Also, the Complex formation result in the test with KB [3] and in the test with KB [4] was “No activity” each time.

`COc1cc([C@@H]2c3cc4c(cc3[C@@H](O[C@@H]3O[C@@H]5CO[C@@H](C)O[C@H]5[C@H](O)[C@H]3O)[C@H]3COC(=O)[C@H]23)OCO4)cc(OC)c1O` [ETOPOSIDE]: the inhibition entry in test [5] was “inactive”. The Complex formation in the test on KB [9] and in the test on KB [10] was 100% in each case.

Consider `O=C1OC(c2ccc(O)c(O)c2)C2C(=O)OC(c3ccc(O)c(O)c3)C12` (stereo not drawn), for which the inhibition in test [1] and in [2] was 100% each time.

With `O=C(O[C@@H]1C[C@](O)(C(=O)O)C[C@@H](O)[C@H]1O)C1=Cc2cc(O)c(O)cc2[C@H](c2ccc(O)c(O)c2)[C@H]1C(=O)O[C@@H]1C[C@](O)(C(=O)O)C[C@@H](O)[C@H]1O`, the inhibition entry in test [5] is “inactive”. The compound further came in with an inhibition in test [1] of 100%. Further, the Complex formation result with KB [6], in the test with KB [7], in the test on KB [3], in the test on KB [8] and with KB [4] was “No activity” throughout.

Source of the values: ChEMBL document CHEMBL1128882, “Novel lignan derivatives as selective inhibitors of DNA topoisomerase II” (1995).
